≈ marks a conversion by molar mass, not a printed value.
Assays:
NCI-H1299 = experiment: Cytotoxicity against human NCI-H1299 cells after 72 hrs by Alamar blue assay; format: functional; conditions: NCI-H1299, 72 h
[1] = Cytotoxicity against human KBV1 cells expressing p-glycoprotein; format: functional; conditions: KB-V1
[2] = target: T1, Kinesin-like protein KIF11 (Homo sapiens, UniProt P52732)
T1 sequence (P52732 whole entry): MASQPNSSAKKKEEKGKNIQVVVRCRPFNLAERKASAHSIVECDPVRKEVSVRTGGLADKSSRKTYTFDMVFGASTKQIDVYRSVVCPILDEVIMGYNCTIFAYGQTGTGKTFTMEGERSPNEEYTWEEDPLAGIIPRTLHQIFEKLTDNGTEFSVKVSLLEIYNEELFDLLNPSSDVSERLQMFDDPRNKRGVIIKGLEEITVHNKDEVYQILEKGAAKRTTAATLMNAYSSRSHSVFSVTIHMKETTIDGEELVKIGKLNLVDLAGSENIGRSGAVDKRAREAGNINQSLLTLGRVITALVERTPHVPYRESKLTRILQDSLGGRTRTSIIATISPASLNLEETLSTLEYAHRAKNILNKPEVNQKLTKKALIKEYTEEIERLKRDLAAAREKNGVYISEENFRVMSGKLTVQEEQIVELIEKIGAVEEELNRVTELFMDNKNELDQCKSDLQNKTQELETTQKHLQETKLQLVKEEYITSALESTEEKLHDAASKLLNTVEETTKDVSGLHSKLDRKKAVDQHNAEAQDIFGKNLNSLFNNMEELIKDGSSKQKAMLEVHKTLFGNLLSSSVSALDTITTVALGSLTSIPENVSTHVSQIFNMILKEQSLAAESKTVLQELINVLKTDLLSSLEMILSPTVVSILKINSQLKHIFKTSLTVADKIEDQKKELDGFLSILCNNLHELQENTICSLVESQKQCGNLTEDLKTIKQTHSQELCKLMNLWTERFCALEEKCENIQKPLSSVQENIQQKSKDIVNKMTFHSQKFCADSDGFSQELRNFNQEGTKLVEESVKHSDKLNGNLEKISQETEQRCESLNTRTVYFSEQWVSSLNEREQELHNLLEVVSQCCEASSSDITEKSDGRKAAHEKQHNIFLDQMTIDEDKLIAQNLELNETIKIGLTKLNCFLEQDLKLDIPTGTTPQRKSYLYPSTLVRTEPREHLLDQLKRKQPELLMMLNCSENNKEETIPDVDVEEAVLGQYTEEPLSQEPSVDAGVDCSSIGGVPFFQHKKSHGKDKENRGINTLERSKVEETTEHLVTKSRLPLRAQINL
Description: Inhibition of basal ATPase activity of Eg5 by coupled pyruvate kinase/lactate dehydrogenase assay

BXPC-3 = experiment: Cytotoxicity against human BxPC3 cells after 72 hrs by Alamar blue assay; format: functional; conditions: BXPC-3, 72 h
K562 = experiment: Cytotoxicity against human K562 cells after 72 hrs by Alamar blue assay; format: functional; conditions: K562, 72 h
KB-V1 = experiment: Multidrug resistant ratio of GI50 for human KBV1 cells expressing p-glycoprotein to GI50 for wild type human KB-3-1 cells; format: functional
HCT-116 = experiment: Cytotoxicity against human HCT116 cells after 72 hrs by Alamar blue assay; format: functional; conditions: HCT-116, 72 h
[3] = Solubility of the compound in phosphate buffered saline at pH 7.4 after 2 hrs by turbidimetric analysis; format: physicochemical
[4] = Cytotoxicity against wild type human KB-3-1 cells; format: functional

Compound	IC50 [2] [nM]	GI50 (K562) [nM]	also measured
N[C@@H](CSC(Cc1ccccc1)(c1ccccc1)c1ccccc1)C(=O)O	138	3140	GI50 (NCI-H1299): 6870 nM; GI50 [1]: > 50000 nM; GI50 (BXPC-3): 14300 nM; RatioGI50 (KB-V1): >10; GI50 (HCT-116): 2370 nM; solubility kinetic at 2 h [3]: > 100 µM; GI50 [4]: 5330 nM
NCCSC(Cc1ccccc1)(c1ccccc1)c1ccccc1	684	–	solubility kinetic at 2 h [3]: > 100 µM
N[C@@H](CSC(CCc1ccccc1)(c1ccccc1)c1ccccc1)C(=O)O	15800	–	–
N[C@@H](CSC(C(=O)c1ccccc1)(c1ccccc1)c1ccccc1)C(=O)O	> 150000	–	–
N[C@@H](CSC(Cc1cccc(Cl)c1)(c1ccccc1)c1ccccc1)C(=O)O	238	–	–
N[C@@H](CSC(Cc1ccc(Cl)cc1)(c1ccccc1)c1ccccc1)C(=O)O	456	–	–
N[C@@H](CSC(Cc1ccc(Cl)c(Cl)c1)(c1ccccc1)c1ccccc1)C(=O)O	5280	–	–
NCCSC(c1ccccc1)(c1ccccc1)c1ccncc1	942	–	–
NCCSC(C(=O)c1ccccc1)(c1ccccc1)c1ccccc1	> 50000	–	–
N[C@@H](CSC(Cc1ccccc1)(c1ccc(Cl)cc1)c1ccc(Cl)cc1)C(=O)O	252	–	–
Cc1ccc(C(Cc2ccccc2)(SC[C@H](N)C(=O)O)c2ccc(C)cc2)cc1	106	2790	–
NCCSC(Cc1ccccc1)(c1ccc(F)cc1)c1ccc(F)cc1	588	–	–
NCCSC(Cc1ccccc1)(c1ccc(Cl)cc1)c1ccc(Cl)cc1	404	–	–
Cc1ccc(C(Cc2ccccc2)(SCCN)c2ccc(C)cc2)cc1	261	–	–
N[C@@H](CSC(c1ccccc1)(c1ccccc1)c1ccncc1)C(=O)O	514	–	–
NCCSC(c1ccccc1)(c1ccccc1)c1ccccc1	241	–	–
N[C@@H](CSC(Cc1ccccc1)(c1ccccc1)c1ccccc1F)C(=O)O (mixture of isomers)	217	–	–
N[C@@H](CSC(Cc1ccccc1)(c1ccccc1)c1cccc(Cl)c1)C(=O)O (mixture of isomers)	129	4540	–

Compound	IC50 [2] [nM]	GI50 (K562) [nM]	also measured
N[C@@H](CSC(Cc1ccccc1)(c1ccccc1)c1cccc(O)c1)C(=O)O (mixture of isomers)	67.6	17700	–
N[C@@H](CSC(Cc1ccccc1)(c1ccccc1)c1ccc(F)cc1)C(=O)O (mixture of isomers)	151	6100	–
N[C@@H](CSC(Cc1ccccc1)(c1ccccc1)c1ccc(Cl)cc1)C(=O)O (mixture of isomers)	58.6	2470	GI50 (NCI-H1299): 3630 nM; GI50 [1]: > 50000 nM; GI50 (BXPC-3): 3790 nM; RatioGI50 (KB-V1): >10; GI50 (HCT-116): 2080 nM; GI50 [4]: 4890 nM
Cc1ccc(C(Cc2ccccc2)(SC[C@H](N)C(=O)O)c2ccccc2)cc1 (mixture of isomers)	168	1440	GI50 (NCI-H1299): 2430 nM; GI50 [1]: > 50000 nM; GI50 (BXPC-3): 4340 nM; RatioGI50 (KB-V1): >20; GI50 (HCT-116): 1490 nM; solubility kinetic at 2 h [3]: 11.5 µM; GI50 [4]: 2440 nM
N[C@@H](CSC(Cc1ccccc1)(c1ccccc1)c1ccc(O)cc1)C(=O)O (mixture of isomers)	159	18200	–
N[C@@H](CSC(Cc1ccccc1)(c1ccccc1)c1ccc(Cl)c(Cl)c1)C(=O)O (mixture of isomers)	191	–	–
N[C@@H](CSC(Cc1ccccc1)(c1ccc(Cl)cc1)c1cccc(Cl)c1)C(=O)O (mixture of isomers)	568	–	–
N[C@@H](CSC(Cc1ccccc1)(c1ccc(F)cc1)c1ccc(F)cc1)C(=O)O (mixture of isomers)	178	5120	–
NCCSC(Cc1ccccc1)(c1ccccc1)c1ccccc1F (racemic)	790	–	–
NCCSC(Cc1ccccc1)(c1ccccc1)c1cccc(Cl)c1 (racemic)	519	–	–
NCCSC(Cc1ccccc1)(c1ccccc1)c1cccc(O)c1 (racemic)	256	2730	–
NCCSC(Cc1ccccc1)(c1ccccc1)c1ccc(F)cc1 (racemic)	578	–	–
NCCSC(Cc1ccccc1)(c1ccccc1)c1ccc(Cl)cc1 (racemic)	141	3720	GI50 (NCI-H1299): 6790 nM; GI50 [1]: 5780 nM; GI50 (BXPC-3): 4260 nM; RatioGI50 (KB-V1): 1; GI50 (HCT-116): 2050 nM; GI50 [4]: 5550 nM
Cc1ccc(C(Cc2ccccc2)(SCCN)c2ccccc2)cc1 (racemic)	172	2390	GI50 (NCI-H1299): 2500 nM; GI50 [1]: 1720 nM; GI50 (BXPC-3): 4070 nM; RatioGI50 (KB-V1): 1; GI50 (HCT-116): 1170 nM; solubility kinetic at 2 h [3]: 6.5 µM (≈ 2.26 µg/mL); GI50 [4]: 1880 nM
NCCSC(Cc1ccccc1)(c1ccccc1)c1ccc(O)cc1 (racemic)	666	–	–
NCCSC(Cc1ccccc1)(c1ccccc1)c1ccc(Cl)c(Cl)c1 (racemic)	229	–	–
NCCSC(Cc1ccccc1)(c1ccc(Cl)cc1)c1cccc(Cl)c1 (racemic)	437	–	–
